In the NIST ThermoML archive (doi:10.1021/acs.jced.5b01003):
Values joined by “and” are separate entries in the source; they are usually repeats but may differ in a detail not shown here. Equal values may be shown once.

Conditions: Liquid, Transpiration method

CN(C)CCN [2-dimethylamino-1-ethylamine]
Conditions | vapor or sublimation pressure
273.8 K | 0.7397 kPa
274.2 K | 0.7526 kPa
275.2 K | 0.808 kPa
276.7 K | 0.8869 kPa
278.2 K | 0.9687 kPa
280.7 K | 1.114 kPa
283.2 K | 1.309 kPa
285.6 K | 1.561 kPa
288.2 K | 1.821 kPa
290.7 K | 2.088 kPa
293.2 K | 2.392 kPa
295.6 K | 2.763 kPa
298.2 K | 3.186 kPa and 3.282 kPa
300.7 K | 3.755 kPa and 3.727 kPa
303.2 K | 4.331 kPa and 4.291 kPa

CNCCNC [N1,N2-dimethylethane-1,2-diamine]
Conditions | vapor or sublimation pressure [kPa]
279.2 K | 0.4258
281.4 K | 0.5045
283.3 K | 0.5851
285.6 K | 0.6936
288.2 K | 0.8579
290.6 K | 1.023
293.2 K | 1.228
295.8 K | 1.498
298.2 K | 1.781
300.7 K | 2.106
303.4 K | 2.477
305.6 K | 2.892
308.2 K | 3.408
310.7 K | 3.974

CNCCN(C)C [N,N,N'-trimethylethylenediamine]
Conditions | vapor or sublimation pressure [kPa]
274.2 K | 0.5021
276.7 K | 0.605
281.8 K | 0.8858
286.8 K | 1.271
291 K | 1.686
296.3 K | 2.403
298.2 K | 2.733
301 K | 3.259
303.2 K | 3.811
304.1 K | 4.074
305.4 K | 4.402

CNCCN [N-methylethylenediamine]
Conditions | vapor or sublimation pressure [kPa]
272.2 K | 0.2731
274.3 K | 0.3181
275.4 K | 0.3449
278 K | 0.4148
278.6 K | 0.4455
279.4 K | 0.4695
280.2 K | 0.4943
281.3 K | 0.5355
282.3 K | 0.5867
283.1 K | 0.6075
284.1 K | 0.6579
284.9 K | 0.6972
286.3 K | 0.7738
287.8 K | 0.8601
289.3 K | 0.9404
290.6 K | 1.034
292.2 K | 1.176
294.6 K | 1.394
296.2 K | 1.541
298.1 K | 1.762
300.2 K | 2.017
302.2 K | 2.275
